Laboratory results published in PubChem BioAssay (NCI).
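Following 48 hours of exposure in 96-well plates, responses at five concentrations were used to interpolate endpoints linearly. TGI: total growth inhibition.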

system: KM12 colon; test: DTP human tumour cell line panel, 48 h

Compared with `COCCN1C(=O)C2c3[nH]c4ccccc4c3C3CCC(C(C)(C)C)CC3C2C1=O` (centres undefined), `CCn1c2ccccc2c2cc(Nc3cc(C)[nH]c(=O)n3)ccc21` is higher in TGI: 38.9 µM for the first, greater than 100 µM for the second.

`O=C(O)c1ccc(N/C(=C(/C(Cl)=C(Cl)Cl)[N+](=O)[O-])n2nnc3ccccc32)cc1` and `COc1ccc(CNc2nc3ccccc3nc2C(=O)O)cc1` cannot be ordered by TGI: greater than 100 µM for the first, greater than 100 µM for the second.

`O=c1c2ccccc2nc(-c2ccccc2)n1NC(=S)Nc1cccc(Cl)c1` and `O=C(Cc1ccccc1)NN1C(=O)/C(=C\c2ccccc2O)SC1=Nc1ccccc1` cannot be ordered by TGI: greater than 100 µM for the first, greater than 100 µM for the second.

Going from `C(#Cc1ccccc1)SC1=C(c2ccccc2)S/C(=C(\SC#Cc2ccccc2)c2ccccc2)S1` to `CC(C)(C)[Si](C)(C)OC[C@H](/C=C\CCCC(=O)O)NC1(c2ccccc2)c2ccccc2-c2ccccc21`, the TGI falls from greater than 100 µM to 48.8 µM.

`COC(=O)c1cc(/C=C\c2cc(OC)ccc2OC)ccc1OC` and `COc1ccc2c([nH]c3c(O)c(-c4c(C)cc5c([nH]c6c(CC=C(C)C)c(OC)ccc65)c4O)c(C)cc32)c1CC=C(C)C` cannot be ordered by TGI: greater than 100 µM for the first, greater than 100 µM for the second.

`Cc1ccc(S(=NS(=O)(=O)c2ccc(C)cc2)c2ccc(C)cc2)cc1` and `Cc1ccc(S(=O)(=O)Nn2c(O)c(C#N)c(-c3ccc([N+](=O)[O-])cc3)c(C#N)c2=O)cc1` cannot be ordered by TGI: greater than 100 µM for the first, greater than 100 µM for the second.

`CCOC(=O)C(C(=O)COC(C)(C)C)[C@@H]1C=C[C@H](OC(C)=O)C1` (some centres undefined) and `CCOC(=O)C(C/C=C/CO)N(C)C(=O)OC(C)(C)C` (centres undefined) cannot be ordered by TGI: greater than 100 µM for the first, greater than 100 µM for the second.

`CCOC(=O)CC(NC(=O)c1ccc(N=NN(C)C)cc1)C(=O)OCC` (centres undefined) and `CC(=O)OCC1OC(n2c(-c3ccccc3)c(N=Nc3ccc(C)cc3)c(C)c(C#N)c2=S)C(OC(C)=O)C(OC(C)=O)C1OC(C)=O` (centres undefined) cannot be ordered by TGI: greater than 100 µM for the first, greater than 100 µM for the second.

Compared with `CN(C)CN(C)c1nc(N(C)C)nc(N(C)CN(C)C)n1`, `CC(C)[Si](OCC1CC(C#N)OC(C)(C)O1)(C(C)C)C(C)C` (centres undefined) is lower in TGI: greater than 100 µM for the first, 35.9 µM for the second.

`O=c1[nH]nc(-c2ccccc2)n1-n1cnnc1` and `COc1ccc(-n2cnc3c(NC(Cc4ccccc4)C(=O)O)ncnc32)cc1` (centres undefined) cannot be ordered by TGI: greater than 100 µM for the first, greater than 100 µM for the second.

`CCCCCCCCCCCCOP(=O)(O)OP(=O)(O)OCC1OC(n2cc(C)c(=O)[nH]c2=O)CC1O` (centres undefined) and `CCOc1cc2c(cc1O)C(N)C[C@@H]1[C@@H]2CC[C@]2(C)[C@@H](O)CC[C@@H]12` (some centres undefined) cannot be ordered by TGI: greater than 100 µM for the first, greater than 100 µM for the second.

Compared with `O=C1c2cc([N+](=O)[O-])sc2C(=O)c2c([N+](=O)[O-])csc21`, `Cc1csc(-n2c(C)nc3cc(Cl)ccc3c2=O)n1` is higher in TGI: 2.6 µM for the first, greater than 100 µM for the second.

Compared with `CC(C)C(NC(=O)C(Cc1ccccc1)NC(=O)[C@H]1CCC[C@H]1NC(=O)C(Cc1ccc(OC(C)(C)C)cc1)NC(=O)OC(C)(C)C)C(N)=O` (some centres undefined), `CC(C)(C)C1=C(Br)C(OC(=O)C(F)(F)F)(C(C)(C)C)OP1(=O)c1ccccc1` (centres undefined) is higher in TGI: 41.8 µM for the first, greater than 100 µM for the second.

Compared with `N#C/C(=C\c1ccc2[nH]ccc2c1)C(=O)c1ccc(O)c(O)c1`, `CC(=O)Nc1ccc(-c2nnc(SCC(=O)Nc3ccc(Cl)cc3)o2)cc1` is lower in TGI: greater than 100 µM for the first, 29 µM for the second.

Work on `NN/C(=N\S(=O)(=O)c1ccc(S(=O)(=O)c2ccccc2)s1)Nc1ccc(Cl)cc1` yielded a TGI of 49.3 µM.

system: SK-OV-3 ovarian; test: DTP human tumour cell line panel, 48 h

Going from `COCCN1C(=O)C2c3[nH]c4ccccc4c3C3CCC(C(C)(C)C)CC3C2C1=O` (centres undefined) to `CCn1c2ccccc2c2cc(Nc3cc(C)[nH]c(=O)n3)ccc21`, the TGI rises from 42.7 µM to greater than 100 µM.

Compared with `O=C(O)c1ccc(N/C(=C(/C(Cl)=C(Cl)Cl)[N+](=O)[O-])n2nnc3ccccc32)cc1`, `CC(=O)Nc1ccc(-c2nnc(SCC(=O)Nc3ccc(Cl)cc3)o2)cc1` is lower in TGI: greater than 100 µM for the first, 47.1 µM for the second.

`O=c1c2ccccc2nc(-c2ccccc2)n1NC(=S)Nc1cccc(Cl)c1` and `O=C(Cc1ccccc1)NN1C(=O)/C(=C\c2ccccc2O)SC1=Nc1ccccc1` cannot be ordered by TGI: greater than 100 µM for the first, greater than 100 µM for the second.

Compared with `C(#Cc1ccccc1)SC1=C(c2ccccc2)S/C(=C(\SC#Cc2ccccc2)c2ccccc2)S1`, `CC(C)(C)[Si](C)(C)OC[C@H](/C=C\CCCC(=O)O)NC1(c2ccccc2)c2ccccc2-c2ccccc21` is lower in TGI: greater than 100 µM for the first, 72.8 µM for the second.

Compared with `COC(=O)c1cc(/C=C\c2cc(OC)ccc2OC)ccc1OC`, `COc1ccc2c([nH]c3c(O)c(-c4c(C)cc5c([nH]c6c(CC=C(C)C)c(OC)ccc65)c4O)c(C)cc32)c1CC=C(C)C` is higher in TGI: 83.6 µM for the first, greater than 100 µM for the second.

`CCOC(=O)C(C(=O)COC(C)(C)C)[C@@H]1C=C[C@H](OC(C)=O)C1` (some centres undefined) and `CCOC(=O)C(C/C=C/CO)N(C)C(=O)OC(C)(C)C` (centres undefined) cannot be ordered by TGI: greater than 100 µM for the first, greater than 100 µM for the second.

Going from `CCOC(=O)CC(NC(=O)c1ccc(N=NN(C)C)cc1)C(=O)OCC` (centres undefined) to `CC(C)C(NC(=O)C(Cc1ccccc1)NC(=O)[C@H]1CCC[C@H]1NC(=O)C(Cc1ccc(OC(C)(C)C)cc1)NC(=O)OC(C)(C)C)C(N)=O` (some centres undefined), the TGI falls from greater than 100 µM to 57.6 µM.

Going from `CN(C)CN(C)c1nc(N(C)C)nc(N(C)CN(C)C)n1` to `CC(C)[Si](OCC1CC(C#N)OC(C)(C)O1)(C(C)C)C(C)C` (centres undefined), the TGI falls from greater than 100 µM to 73.4 µM.

`O=c1[nH]nc(-c2ccccc2)n1-n1cnnc1` and `COc1ccc(-n2cnc3c(NC(Cc4ccccc4)C(=O)O)ncnc32)cc1` (centres undefined) cannot be ordered by TGI: greater than 100 µM for the first, greater than 100 µM for the second.

`CCCCCCCCCCCCOP(=O)(O)OP(=O)(O)OCC1OC(n2cc(C)c(=O)[nH]c2=O)CC1O` (centres undefined) and `Cc1ccc(S(=O)(=O)Nn2c(O)c(C#N)c(-c3ccc([N+](=O)[O-])cc3)c(C#N)c2=O)cc1` cannot be ordered by TGI: greater than 100 µM for the first, greater than 100 µM for the second.

First: O=C1c2cc([N+](=O)[O-])sc2C(=O)c2c([N+](=O)[O-])csc21
Second: Cc1csc(-n2c(C)nc3cc(Cl)ccc3c2=O)n1
The TGI of the first is lower: 3.09 µM for the first, greater than 100 µM for the second.

`N#C/C(=C\c1ccc2[nH]ccc2c1)C(=O)c1ccc(O)c(O)c1` and `NN/C(=N\S(=O)(=O)c1ccc(S(=O)(=O)c2ccccc2)s1)Nc1ccc(Cl)cc1` cannot be ordered by TGI: greater than 100 µM for the first, greater than 100 µM for the second.

`CC(C)(C)C1=C(Br)C(OC(=O)C(F)(F)F)(C(C)(C)C)OP1(=O)c1ccccc1` (centres undefined) showed a TGI greater than 100 µM.
